What was measured:
[1] = tested on: Rac1 activity in A549 cells; assay: Rac1 activity assay (affinity isolation of GTP-bound Rac1) in A549 cells; format: cell-based, human
Description: Rac 1 Activity Assays: Rac1 activity in A549 and H1299 cell transfectants was assessed by affinity isolation of GTP-bound Rac1 using binding domains of PAK as described previously (Sander et al., J. Cell Biol., 143(5):1385-98 (1998)). Briefly, cells were lysed in lysis buffer (50 mM Tris-HCl pH 7.5, 150 mM NaCl, 20 mM MgCl2, 5 mM EGTA, 10% glycerol, 1% Triton X-100, 1% NP-40, 25 mM NaF, 1 mM phenylmethylsulfonyl fluoride, 1 mM sodium orthovanadate, 10 μg/ml leupeptin, 10 μg/ml aprotinin) at 4° C. for 5 min. Cellular debris was removed by centrifugation at 20,000×g for 5 min, and supernatants were transferred to new tubes containing 20 μl of GST-p21-binding domain of PAK1 (PAK1-PBD) coupled to agarose beads (Upstate). An aliquot of each supernatant was reserved to determine total Rac1 and actin expression by immunoblot analysis. Following a 30-minute incubation at 4° C., the agarose beads were collected by centrifugation and washed three times in wash buffer (50 mM Tris-HCl pH 7.5, 150 mM NaCl, 20 mM MgCl2, 5 mM EGTA, 10% glycerol, 1% Triton X-100, 1% NP-40, 25 mM NaF, 1 mM phenylmethylsulfonyl fluoride, 1 mM sodium orthovanadate, 10 μg/ml leupeptin, 10 μg/ml aprotinin). Bound polypeptides were solubilized by the addition of 30 μl of SDS sample buffer, resolved by SDS-PAGE, and subjected to immunoblot analysis for Rac1. An equivalent aliquot of the total cell lysate was subjected to immunoblot analysis to determine total Rac1 expression.
Rac 1 Activity Assays: A549 cells were incubated with the indicated concentration of ATG for one hour prior to analysis. Rac1 activity in A549 cells was assessed by affinity isolation of GTP-bound Rac1 using binding domains of PAK as described elsewhere (Sander et al., J. Cell Biol., 143:1385-98 (1998)). Briefly, cells were lysed in lysis buffer (50 mM Tris-HCl pH 7.5, 150 mM NaCl, 20 mM MgCl2, 5 mM EGTA, 10% glycerol, 1% Triton X-100, 1% NP-40, 25 mM NaF, 1 mM phenylmethylsulfonyl fluoride, 1 mM sodium orthovanadate, 10 μg/ml leupeptin, and 10 μg/ml aprotinin) at 4° C. for 5 min. […]

[2] = tested on: A549 cells; assay: Soft agar growth assay (anchorage-independent growth) of A549 cells; format: cell-based, human; conditions: A549 cells, FIG. 20
Description: (§1) Anchorage-independent growth was assayed by the ability of cells to form colonies in soft agar. The bottom agar consisted of growth medium containing 10% FBS and 0.75% agarose in 60-mm tissue culture dishes. Nine hundred cells were resuspended in growth medium containing 10% FBS and 0.75% agarose, and plated on top of the bottom agar. The cells were incubated at 37° C. in 5% CO2. Cell colonies were visualized and quantified under a dissecting microscope (Olympus) after 4-6 weeks in culture.
as §1, with “Soft Agar Growth Assays: Anchorage-independent growth” for “Anchorage-independent growth”, “and 0.75% agarose and plated” for “and 0.75% agarose, and plated”, “bottom agar. ATG was added at the indicated concentration to both bottom and top agar solutions. The cells” for “bottom agar. The cells”

[3] = tested on: A549 human lung carcinoma cells; assay: Tumorigenicity in nude mice: A549 subcutaneous tumors; format: in vivo, mouse; conditions: 200 mg/kg body weight intraperitoneal daily, versus saline; FIG. 21
Description: Tumorigenicity in Nude Mice: The growth of A549 human lung carcinoma cells as established subcutaneous tumors was studied in athymic nude mice (Harlan-Sprague-Dawley, Indianapolis, Ind.) in a defined pathogen-free environment. Briefly, A549 cells were grown in F-12K Nutrient Mixture containing 10% FBS. A549 cells were harvested and resuspended in serum-containing medium. 5×10^6 cells in 100 μl of growth medium were injected subcutaneously into the flank of 4-6 week old female nude mice. Once palpable tumors were established (15 days after inoculation) animals were randomly segregated into two groups. One group received intraperitoneal injections of ATG (200 mg/kg body weight) daily; the second group received an equivalent volume of diluent control solution. Tumor size was measured daily. Tumor growth was quantified by measuring the tumors in three dimensions with calipers. Tumor volume (mm^3) was calculated using the formula: 0.5236 (L×W×H), where L represents the length of the tumor, W represents the width of the tumor, and H represents the height of the tumor. Animals were individually monitored throughout the experiment.

OC[C@H]1O[C@H]([S-])[C@H](O)[C@@H](O)[C@@H]1O.[Au+] [Aurothioglucose]
Rac1 activity ([1]; A549 cells incubated with ATG for one hour, FIG. 19): decreased Rac1 activity
dose dependence of Rac1 activity ([1]; A549 cells, less Rac1 activity as ATG concentrations increased): dose-dependent effect on Rac1 activity
soft agar growth ([2]; 10 μM): decreased soft agar growth
soft agar growth ([2]; 100 μM): decreased soft agar growth
tumor growth (tumor volume) [3]: less tumor growth

— US7642400B2, “Protein kinase C iota” (Mayo Foundation for Medical Education and Research, priority 2004, dated 2010)
